Test results: US20240158446A1, “CYCLIC COMPOUND HAVING SELECTIVE INHIBITORY ACTION ON KRAS OVER HRAS AND NRAS” (CHUGAI SEIYAKU KABUSHIKI KAISHA, priority 2021, published 2024)

How the values were obtained:
[1] = target: GDP-bound NRAS wild-type protein (Homo sapiens, UniProt P01111); assay: Binding to NRAS by surface plasmon resonance (SPR), Single Cycle Kinetics; conditions: SPR; GDP-bound NRAS wild-type protein vs GDP-bound KRAS wild-type protein; KD ratio class
[2] = target: GDP-bound KRAS wild-type protein (Homo sapiens, UniProt P01116); assay: Binding to KRAS by surface plasmon resonance (SPR), Single Cycle Kinetics; conditions: SPR, Single Cycle Kinetics, 1:1 binding model; GDP-bound KRAS wild-type protein; read-out: KRAS KD
[3] = target: GDP-bound HRAS wild-type protein (Homo sapiens, UniProt P01112); assay: Binding to HRAS by surface plasmon resonance (SPR), Single Cycle Kinetics; conditions: SPR; GDP-bound HRAS wild-type protein vs GDP-bound KRAS wild-type protein; KD ratio class
[4] = test system: human lung cancer strain NCI-H441;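 note: cell proliferation inhibition after four days measured by CellTiter-Glo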

Chain of GDP-bound NRAS wild-type protein (P01111 whole entry): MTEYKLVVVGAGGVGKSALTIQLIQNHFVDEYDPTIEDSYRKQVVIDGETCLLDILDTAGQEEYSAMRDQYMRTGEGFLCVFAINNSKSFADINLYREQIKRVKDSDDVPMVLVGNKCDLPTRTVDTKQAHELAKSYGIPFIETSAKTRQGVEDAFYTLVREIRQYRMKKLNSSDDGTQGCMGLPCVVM
Chain of GDP-bound KRAS wild-type protein (P01116 whole entry): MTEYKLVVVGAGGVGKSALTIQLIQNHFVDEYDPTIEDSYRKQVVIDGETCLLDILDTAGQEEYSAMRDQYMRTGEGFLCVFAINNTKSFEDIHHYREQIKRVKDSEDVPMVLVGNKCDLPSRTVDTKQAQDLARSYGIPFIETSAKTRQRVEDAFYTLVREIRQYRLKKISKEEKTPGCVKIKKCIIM
Chain of GDP-bound HRAS wild-type protein (P01112 whole entry): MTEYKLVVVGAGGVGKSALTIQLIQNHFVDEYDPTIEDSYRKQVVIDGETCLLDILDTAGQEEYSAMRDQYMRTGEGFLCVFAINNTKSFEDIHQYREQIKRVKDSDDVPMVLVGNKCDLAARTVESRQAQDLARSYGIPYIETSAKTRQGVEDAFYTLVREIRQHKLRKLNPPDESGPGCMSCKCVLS

| SMILES | NRAS/KRAS (ratio of KD value for NRAS to KD value for KRAS) [1] | Kd [2] [nM] | HRAS/KRAS (ratio of KD value for HRAS to KD value for KRAS) [3] | IC50 [4] [nM] |
| --- | --- | --- | --- | --- |
| CCC[C@H]1C(=O)N[C@@H]([C@@H](C)CC)C(=O)N(C)CC(=O)N(C)[C@H]2C/C=C\CCN(C2=O)[C@@H](Cc2ccc(C(F)(F)F)cc2)C(=O)N(C)CC(=O)N[C@@H](CCc2cc(F)c(C(F)(F)F)c(F)c2)C(=O)N2C[C@H](OCC)C[C@H]2C(=O)NC2(CCC2)C(=O)N(C)[C@@H](C2CCCC2)C(=O)N(C)[C@H](C(=O)N2CCOCC2)CC(=O)N1C [PP1288] | AA (a compound having 20 or more is denoted as AA) | 0.18 | A (a compound having 10 or more and less than 20 is denoted as A) | 22.2 |
| CCO[C@@H]1C[C@H]2C(=O)NC3(CCC3)C(=O)N(C)[C@@H](C3CCCC3)C(=O)N(C)[C@H](C(=O)N3CCCCC3)CC(=O)N(C)[C@@H](CC)C(=O)N[C@@H]([C@@H](C)CC)C(=O)N(C)CC(=O)N(C)[C@H]3C/C=C\CCN(C3=O)[C@@H](Cc3ccc(C(F)(F)F)cc3)C(=O)N(C)CC(=O)N[C@@H](CCc3cc(F)c(C(F)(F)F)c(F)c3)C(=O)N2C1 [PP1289] | AA (a compound having 20 or more is denoted as AA) | 0.17 | A (a compound having 10 or more and less than 20 is denoted as A) | 34.7 |
| CCO[C@@H]1C[C@H]2C(=O)NC3(CCC3)C(=O)N(C)[C@@H](C3CCCC3)C(=O)N(C)[C@H](C(=O)N3CCCCC3)CC(=O)N(C)[C@@H](CC(C)C)C(=O)N[C@@H]([C@@H](C)CC)C(=O)N(C)CC(=O)N(C)[C@H]3C/C=C\CCN(C3=O)[C@@H](Cc3ccc(C(F)(F)F)cc3)C(=O)N(C)CC(=O)N[C@@H](CCc3cc(F)c(C(F)(F)F)c(F)c3)C(=O)N2C1 [PP1290] | AA (a compound having 20 or more is denoted as AA) | 0.24 | A (a compound having 10 or more and less than 20 is denoted as A) | 15.4 |
| CCO[C@@H]1C[C@H]2C(=O)NC3(CCC3)C(=O)N(C)[C@@H](C3CCCC3)C(=O)N(C)[C@H](C(=O)N3CCCCC3)CC(=O)N(C)[C@@H](CC3CC3)C(=O)N[C@@H]([C@@H](C)CC)C(=O)N(C)CC(=O)N(C)[C@H]3C/C=C\CCN(C3=O)[C@@H](Cc3ccc(C(F)(F)F)cc3)C(=O)N(C)CC(=O)N[C@@H](CCc3cc(F)c(C(F)(F)F)c(F)c3)C(=O)N2C1 [PP1291] | A (a compound having 10 or more and less than 20 is denoted as A) | 0.24 | A (a compound having 10 or more and less than 20 is denoted as A) | 16.7 |
| CCO[C@@H]1C[C@H]2C(=O)NC3(CCC3)C(=O)N(C)[C@@H](C3CCCC3)C(=O)N(C)[C@H](C(=O)N3CCCCC3)CC(=O)N(C)[C@@H](C)C(=O)N[C@@H]([C@@H](C)CC)C(=O)N(C)CC(=O)N(C)[C@H]3C/C=C\CCN(C3=O)[C@@H](Cc3ccc(C(F)(F)F)cc3)C(=O)N(C)CC(=O)N[C@@H](CCc3cc(F)c(C(F)(F)F)c(F)c3)C(=O)N2C1 [PP1292] | A (a compound having 10 or more and less than 20 is denoted as A) | 0.16 | A (a compound having 10 or more and less than 20 is denoted as A) | 24.6 |
| CCC[C@H]1C(=O)N[C@@H]([C@@H](C)CC)C(=O)N(C)CC(=O)N(C)[C@H]2C/C=C\CCN(C2=O)[C@@H](Cc2ccc(C(F)(F)F)cc2)C(=O)N(C)CC(=O)N[C@@H](CCc2cc(F)c(C(F)(F)F)c(F)c2)C(=O)N2C[C@H](OCC)C[C@H]2C(=O)NC2(CCC2)C(=O)N(C)[C@@H](C2CCCC2)C(=O)N(C)[C@H](C(=O)N2CCCCC2)CC(=O)N1C [PP1294] | A (a compound having 10 or more and less than 20 is denoted as A) | 0.29 | A (a compound having 10 or more and less than 20 is denoted as A) | 10 |
| CCO[C@@H]1C[C@H]2C(=O)NC3(CCC3)C(=O)N(C)[C@@H](C3CCCC3)C(=O)N(C)[C@H](C(=O)N3CCCC3)CC(=O)N(C)[C@@H](CC(C)C)C(=O)N[C@@H]([C@@H](C)CC)C(=O)N(C)CC(=O)N(C)[C@H]3C/C=C\CCN(C3=O)[C@@H](Cc3ccc(C(F)(F)F)cc3)C(=O)N(C)CC(=O)N[C@@H](CCc3cc(F)c(C(F)(F)F)c(F)c3)C(=O)N2C1 [PP1295, (2S,8S,12R,14S,20S,23S,27S,30S,36S,38Z)-20-cyclopentyl-8-[2-[3,5-difluoro-4-(trifluoromethyl)phenyl]ethyl]-12-ethoxy-27-isobutyl-4,19,22,26,32,35-hexamethyl-30-[(1S)-1-methylpropyl]-23-(pyrrolidine-1-carbonyl)-2-[[4-(trifluoromethyl)phenyl]methyl]spiro[1,4,7,10,16,19,22,26,29,32,35-undecazatricyclo[34.5.1.0^10,14]dotetracont-38-ene-17,1′-cyclobutane]-3,6,9,15,18,21,25,28,31,34,42-undecone] | AA (a compound having 20 or more is denoted as AA) | 0.12 | A (a compound having 10 or more and less than 20 is denoted as A) | 6.2 |
| CCO[C@@H]1C[C@H]2C(=O)NC3(CCC3)C(=O)N(C)[C@@H](C3CCCC3)C(=O)N(C)[C@H](C(=O)N3CCCC3)CC(=O)N(C)[C@@H](CC3CC3)C(=O)N[C@@H]([C@@H](C)CC)C(=O)N(C)CC(=O)N(C)[C@H]3C/C=C\CCN(C3=O)[C@@H](Cc3ccc(C(F)(F)F)cc3)C(=O)N(C)CC(=O)N[C@@H](CCc3cc(F)c(C(F)(F)F)c(F)c3)C(=O)N2C1 [PP1296] | AA (a compound having 20 or more is denoted as AA) | 0.12 | A (a compound having 10 or more and less than 20 is denoted as A) | 14.7 |
| CCO[C@@H]1C[C@H]2C(=O)NC3(CCC3)C(=O)N(C)[C@@H](C3CCCC3)C(=O)N(C)[C@H](C(=O)N3CCCC3)CC(=O)N(C)[C@@H](C)C(=O)N[C@@H]([C@@H](C)CC)C(=O)N(C)CC(=O)N(C)[C@H]3C/C=C\CCN(C3=O)[C@@H](Cc3ccc(C(F)(F)F)cc3)C(=O)N(C)CC(=O)N[C@@H](CCc3cc(F)c(C(F)(F)F)c(F)c3)C(=O)N2C1 [PP1297, (2S,8S,12R,14S,20S,23S,27S,30S,36S,38Z)-20-cyclopentyl-8-[2-[3,5-difluoro-4-(trifluoromethyl)phenyl]ethyl]-12-ethoxy-4,19,22,26,27,32,35-heptamethyl-30-[(1S)-1-methylpropyl]-23-(pyrrolidine-1-carbonyl)-2-[[4-(trifluoromethyl)phenyl]methyl]spiro[1,4,7,10,16,19,22,26,29,32,35-undecazatricyclo[34.5.1.0^10,14]dotetracont-38-ene-17,1′-cyclobutane]-3,6,9,15,18,21,25,28,31,34,42-undecone] | AA (a compound having 20 or more is denoted as AA) | 0.087 | A (a compound having 10 or more and less than 20 is denoted as A) | 23.1 |
